According to US7507792B2, “MDA-7 proteins and methods of use thereof” (The Trustees of Columbia University In The City of New York, priority 1993, dated 2009):
“Also recorded” adds a separate entry of the source.

Assays:
mda-8 = mda-8 expression (Northern blotting); format: cell-based, human; conditions: H0-1
Protocol: (§1) The mass excision of the library was performed using ExAssist helper phage as described above. The SOLR strain of Escherichia coli and cDNA phagemids were mixed at 37° C. for 15 min and plated onto LB plates containing ampicillin and IPTG/X-gal. White colonies were chosen at random, isolated and grown in LB medium. Plasmid minireps and restriction enzyme digestions were performed to confirm the presence of inserts. The inserts were isolated and used as robes for Northern blotting analysis (5,25). […] Radiolabeled probes were generated by random oligonucleotide priming (25). Prehybridization, hybridization, posthybridization washes, and autoradiography were performed as described (5,18,25).

mda-6 = mda-6 expression (Northern blotting); format: cell-based, human
Protocol: as §1
Total cytoplasmic RNA was isolated and Northern blotting hybridization was performed as described (Reddy et al., 1991; Su et al., 1991; Jiang et al., 1992). Ten μg of RNA was denatured with glyoxal/DMSO, electrophoresed on 1.0% agarose gels, transferred to nylon membranes and hybridized to a ^32P-labeled p53 probe (Baker et al., 1990). The nylon membrane was stripped and hybridized to a ^32P-labeled mda-6 probe (Jiang and Fisher, 1993) and then after a second stripping the membrane was hybridized to a ^32P-labeled rat GAPDH probe (Fort et al., 1985), as described previously (Reddy et al., 1991; Su et al., 1991; Jiang et al., 1992). Following hybridization, the filters were washed and exposed for autoradiography (Reddy et al., 1991; Su et al., 1991; Jiang et al., 1992). mda-6 and GAPDH gene expression were also determined by reverse transcription-polymerase chain reaction (RT-PCR) as described (Adollahi et al., 1991; Lin et al., 1994; Jiang et al., 1994b). Total cytoplasmic RNA was treated with 0.5 units DNase (Boehringer-Mannheim Biochemicals)/μg RNA in 15% glycerol, 10 mM Tris, pH 7.5, 2.5 mM MgCl2, 0.1 mM EDTA, 80 mM KCl, 1 mM CaCl2 and 1 unit/ml RNasin (Promega) at 30° C. for 10 min. RNA was extracted with phenol-chloroform, precipitated with sodium acetate/ethanol and RNA pellets were resuspended in diethylpyrocarbonate-treated H2O. One μg of total RNA was reverse transcribed with 200 units of murine leukemia virus reverse transcriptase (Bethesda Research Laboratories) in 20 μl containing 1 mM deoxyribonucleotide triphosphates, 4 mM MgCl2, 10 mM Tris, pH 8.3, 50 mM KCl, 0.001% gelatin and 0.2 μg oligo-dT primer. Samples were adjusted to 100 μl with buffer containing 0.2 mM deoxyribonucleotide triphosphates, 2 mM MgCl2, 10 mM Tris, pH 8.3, 50 mM KCl and 0.001% gelatin. Fifty pmol of each primer, 1.5 units Taq DNA polymerase (Perkin-Elmer Cetus) were added and samples were covered with mineral oil, heated at 95° C. for 5 min and subjected to 25 cycles of PCR in a Perkin-Elmer Thermal Cycler using 1 min denaturation at 94° C., 2 min annealing at 55° C. and 3 min polymerization at 72° C. After extraction with chloroform, 20 μl of products were electrophoresed, blotted onto nylon filters and hybridized with an mda-6 or GAPDH specific probe. The mda-6 primers were 5′ to 3′ […] (SEQ ID NO:26) and […] (SEQ ID NO:27)(corresponding to nt 1527 to 1546) (GenBank accession number U09579); and the GAPDH primers were 5′ to 3′ […] (SEQ ID NO:28)and […] (SEQ ID NO:29)(corresponding to nt 1070 to 1053) (Tokunaga et al., 1987).

mda-7 = mda-7 expression (Northern blotting, RT-PCR); format: cell-based, human; conditions: for mda-7 expression: H0-1
Protocol: as §1

[1] = system: H0-1 human melanoma cell line; test: 96-h growth suppression (cell number by Coulter Counter); format: cell-based; conditions: for Growth Suppression (reversible): H0-1 cells, degree of initial 96 hr growth suppression versus untreated control
Protocol: FIG. 1A-B Effect of continuous exposure to various growth and differentiation modulating agents on the 96-h growth of the human melanoma cell line, H0-1. Cells were seeded at 5×10^4/35-mm tissue culture plate and 24 h later the medium was changed with the indicated compounds. Cell numbers were determined by Coulter Counter after 96-h growth. Further details can be found in Materials and Methods.
The H0-1 cell line is a melanotic melanoma derived from a person and was used between passage 100 and 125 (6,8,13). H0-1 cells were kindly provided by Dr. Beppino C. Giovanella, Stehlin Foundation for Cancer Research, Houston, Tex. Cultures were grown at 37° C. in a 95% air 5% CO2-humidified incubator in Dulbecco's modified Eagle's medium (DMEM) supplemented with 10% fetal bovine serum (DMEM-10) (Hyclone, Logan, Utah). H0-1 cells were maintained in the logarithmic stage of growth by subculturing (1:5 or 1:10) prior to confluency approximately every 4 to 5 days. […] Total cell numbers were determined after days 4, 7, 14, and 21, using a ZM Coulter Counter, and viable cell numbers were determined by trypan blue dye exclusion (6). […] Increases in cell number (two or more population doublings) after removal of the inducing agent(s) was considered reversible growth suppression. […] Conditioned medium was collected from treated cultures, contaminating cells were removed by centrifugation at 1000 rpm/10 min., and conditioned medium was stored at 4° C. until assayed for gene modulatory activity. Control conditioned medium was obtained as experimental conditioned medium from cells receiving only a medium change 24 hours after plating in the absence of test compound(s) and growth for 72 hours in DMEM-10.

mda-4 = mda-4 expression (Northern blotting); format: cell-based, human; conditions: H0-1
Protocol: as §1

mda-5 = mda-5 expression (Northern blotting); format: cell-based, human; conditions: H0-1
Protocol: as §1

[2] = 24 hours, doses of FIG. 19, phenyl butyrate 24 hours, 4 days or 7 days
[3] = 96 hours, doses of FIG. 15 legend
[4] = H0-1, 96 hours, doses of FIG. 15 legend
[5] = terminally differentiated HL-60 cells, TPA for 2 days, RA for 4 days

SMILES | mda-8 expression (mda-8; [2]) | mda-8 expression (mda-8; [3]) | mda-6 expression (mda-6; H0-1, 24 hours, doses of FIG. 19, phenyl butyrate 24 hours, 4 or 7 days) | mda-6 expression (mda-6; [4]) | mda-7 expression (mda-7; [2]) | mda-7 expression (mda-7; [3]) | Growth Suppression (reversible) ([1]; Table 1) | Growth Suppression (reversible) ([1]; Table 2) | mda-4 expression (mda-4; [3]) | mda-5 expression (mda-5; [2]) | mda-5 expression (mda-5; [3]) | mda-7 expression (RT-PCR) (mda-7; LAN human neuroblastoma cells, 5 days) | mda-7 expression (RT-PCR) (mda-7; [5]) | inhibition of H0-1 growth ([1]; H0-1, 96 hours, FIG. 1 concentrations) | mda-4 expression (mda-4; [2]) | mda-6 expression (mda-6; human histiocytic lymphoma, U-937, cells, differentiation and growth arrest) | mda-7 expression (RT-PCR) (mda-7; HL-60 and U-937 cells)
C=C(C)[C@@]12O[C@@]3(c4ccccc4)O[C@@H]1[C@@H]1[C@@H]4O[C@]4(CO)[C@@H](O)[C@]4(O)C(=O)C(C)=C[C@H]4[C@@]1(O3)[C@H](C)[C@H]2OC(=O)/C=C/C=C/c1ccccc1 [MEZ, mezerein] | No change in expression | No change in expression | increased expression; also recorded: smaller induction of mda-6 expression | no significant or reduced alteration in expression | increased mda-7 expression | Increased expression | 1+ (1+ = ~30% reduction in growth in comparison with untreated control cultures) | 1+ (1+ = ~30% reduction in growth in comparison with untreated control cultures) | No or only a small change in expression | No change in expression | No change in expression | – | – | – | – | – | –
CC1=C(/C=C/C(C)=C/C=C/C(C)=C/C(=O)O)C(C)(C)CCC1 [RA, trans-retinoic acid] | – | No change in expression | – | no significant or reduced alteration in expression | – | does not induce growth changes or induce mda-7 expression | − (− = no significant change in growth (<10% reduction in growth in comparison with untreated control cultures)) | − (− = no significant change in growth (<10% reduction in growth in comparison with untreated control cultures)) | – | – | No change in expression | not induced | persists | no inhibition of growth | No or only a small change in expression | – | –
CCCCCCCCCCCCCC(=O)O[C@@H]1[C@@H](C)[C@@]2(O)[C@@H](C=C(CO)C[C@]3(O)C(=O)C(C)=C[C@@H]23)[C@@H]2C(C)(C)[C@]12OC(C)=O [TPA, 12-O-tetradecanoyl-phorbol-13-acetate] | – | – | – | – | – | – | – | – | – | – | – | – | persists | – | – | induced | induced
